Assay results from patent US10750742B2, “Pesticidally active pyrazole derivatives” (SYNGENTA PARTICIPATIONS AG, priority 2015, dated 2020).
Read-outs that look alike come from different tables or passages of the source.

Assays:
Type in all cases: in vivo
Spodoptera littoralis [1] = assay: Spodoptera littoralis (Egyptian cotton leaf worm), cotton leaf disc spray test; settings: foliar, 72 h, read-out: control (at least one of mortality, anti-feedant effect, growth inhibition); for percent control (mortality, anti-feedant effect or growth inhibition) at 200 ppm: application rate 200 ppm, L1 larvae, 3 days after infestation
Procedure, shortened: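 Cotton leaf discs on agar were sprayed with aqueous dilutions of 10′000 ppm DMSO stocks, dried and infested with five L1 larvae. Mortality, anti-feedant effect and growth inhibition were scored against untreated samples 3 days after infestation. Control = any of these higher than untreated.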

Plutella xylostella = Plutella xylostella (diamond back moth), artificial diet test; settings: 120 h, read-out: control (mortality and growth inhibition)
Description: Plutella xylostella (Diamond Back Moth):
(§1) 24-well microtiter plates with artificial diet were treated with aqueous test solutions prepared from 10′000 ppm DMSO stock solutions by pipetting. After drying, the plates were infested with L2 larvae (10 to 15 per well). The samples were assessed for mortality and growth inhibition in comparison to untreated samples 5 days after infestation.

Diabrotica balteata = Diabrotica balteata (corn root worm), maize sprout test; settings: 96 h, read-out: control (mortality and growth inhibition)
Description: Diabrotica balteata, (Corn Root Worm)
as §1, with “Maize sprouts, placed on an agar layer in 24-well” for “24-well”, “plates” for “plates with artificial diet”, “spraying.” for “pipetting.”, “(6” for “(10”, “10” for “15”, “4” for “5”

Thrips tabaci [2] = assay: Thrips tabaci (onion thrips), sunflower leaf disc test; settings: foliar, 144 h, read-out: control (mortality)
Description: Thrips tabaci (Onion Thrips):
(§2) Sunflower leaf discs were placed on agar in 24-well microtiter plates and sprayed with aqueous test solutions prepared from 10′000 ppm DMSO stock solutions. After drying the leaf discs were infested with a thrips population of mixed ages. The samples were assessed for mortality 6 days after infestation.

Tetranychus urticae = Tetranychus urticae (two-spotted spider mite), bean leaf disc test; settings: foliar, 192 h, read-out: control (mortality on mixed population, mobile stages)
Description: Tetranychus urticae (Two-Spotted Spider Mite):
as §2, with “Bean” for “Sunflower”, “discs” for “discs were placed”, “were” for “and”, “mite” for “thrips”, “on mixed population (mobile stages) 8” for “6”

Euschistus heros = Euschistus heros (neotropical brown stink bug), soybean leaf test; settings: 120 h, read-out: effect in at least one of the two categories (mortality or growth inhibition); for percent effect (mortality or growth inhibition) at 200 ppm: application rate 200 ppm, N2 nymphs, 5 days after infestation
Description: Euschistus heros (Neotropical Brown Stink Bug):
Soybean leaves on agar in 24-well microtiter plates were sprayed with aqueous test solutions prepared from 10′000 ppm DMSO stock solutions. After drying the leaves were infested with N2 nymphs. The samples were assessed for mortality and growth inhibition in comparison to untreated samples 5 days after infestation.

Myzus persicae [3] = assay: Myzus persicae (green peach aphid), sunflower leaf disc spray test; settings: foliar, 144 h
Description: Myzus persicae (Green Peach Aphid):
Sunflower leaf discs were placed on agar in a 24-well microtiter plate and sprayed with test solutions at an application rate of 200 ppm. After drying, the leaf discs were infested with an aphid population of mixed ages. After an incubation period of 6 DAT, samples were checked for mortality. The following compounds gave at least 80% mortality of Myzus persicae: compounds 1,2, 3, 4, 5, 6, 11, 12, 15, 17, 18, 19, 20, 23, 24, 25, 26, 27, 30, 32, 33, 34 35, 41, 43, 44, 47, 50, 55, 58, 59, 60, 61, 62, 63, 64, 65 and 66.

Myzus persicae [4] = assay: Myzus persicae (green peach aphid), sucrose solution / Parafilm test; settings: 120 h
Procedure, shortened: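 Compound mixed into sucrose solution at 12.5 ppm under stretched Parafilm; aphid-infested pea seedlings set on the membrane and plate inverted so insects feed through it. Mortality assessed 5 days after infestation.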

Spodoptera littoralis [5] = assay: Comparison: insecticidal activity against Spodoptera littoralis, larvicide L-3, feeding/contact, soybean plants; settings: 120 h
Description: (§3) Biological Comparison Data:
(§4) Compound A and B are disclosed in WO2014/122083 as example (Ic-1) (p. 76) and (lc-2) (p. 82, Table 3). The activities of compounds A and B to treat different pests are compared with the activities of compound 4, 6, 15 and 35 according to the present invention. The tests are carried out at different concentrations (ppm).
a) Insecticidal Activity Against Spodoptera littoralis (Egyptian Cotton Leaf Worm, Larvicide L-3, Feeding/Contact)
Soybean plants were sprayed with diluted test solutions in an application chamber. The plants (2 replicates) were infested with 10 L3 larvae 1 day after treatment. Samples were checked 5 days after infestation for mortality, feeding behavior, and growth regulation.

Thrips tabaci [6] = assay: Comparison: insecticidal activity against Thrips tabaci, sunflower leaf discs; settings: Thrips tabaci, foliar, 144 h, 6 days after infestation, read-out: Mortality (%)
Description: as §3, §4
b) Insecticidal Activity Against Thrips tabaci (Onion Thrips):
as §2

[7] = application rate 200 ppm, L2 larvae, 5 days after infestation
[8] = application rate 200 ppm, L2 larvae, 4 days after infestation
[9] = application rate 200 ppm, mixed ages, 6 days after infestation
[10] = application rate 200 ppm, 8 days after infestation
[11] = application rate 200 ppm, mixed ages, 6 DAT, read-out: mortality
[12] = test rate of 12 ppm, sucrose solution, 5 days after infestation, read-out: mortality

SMILES | percent control (mortality, anti-feedant effect or growth inhibition) at 200 ppm (Spodoptera littoralis [1]) | mortality at 200 ppm (Plutella xylostella; [7]) | mortality at 200 ppm (Diabrotica balteata; [8]) | mortality at 200 ppm (Thrips tabaci [2]; [9]) | mortality at 200 ppm (Tetranychus urticae; [10]) | percent effect (mortality or growth inhibition) at 200 ppm (Euschistus heros) | mortality at 200 ppm (Myzus persicae [3]; [11]) | mortality at 12 ppm (Myzus persicae [4]; [12]) | also measured
Cn1nc(OC(F)(F)C(F)C(F)(F)F)c(C(F)(F)F)c1-n1cc(-c2ccc(Cl)c(C(=O)NC3CC3)c2)cn1 (stereo not shown) [compound 6] | ≥ 80% | ≥ 80% | ≥ 80% | ≥ 80% | ≥ 80% | ≥ 80% | ≥ 80% | ≥ 80% | mortality at 0.2 ppm (Spodoptera littoralis [5]; 0.2 ppm, L3 larvae, 5 days after infestation, read-out: Mortality (%)): 0%; mortality at 0.8 ppm (Spodoptera littoralis [5]; 0.8 ppm, L3 larvae, 5 days after infestation, read-out: Mortality (%)): 0%; mortality at 3 ppm (Spodoptera littoralis [5]; 3.0 ppm, L3 larvae, 5 days after infestation, read-out: Mortality (%)): 100%; mortality at 12.5 ppm (Spodoptera littoralis [5]; 12.5 ppm, L3 larvae, 5 days after infestation, read-out: Mortality (%)): 100%
Cn1nc(C(F)(F)C(F)(F)F)c(C(F)(F)F)c1-n1cc(-c2ccc(Cl)c(C(=O)NC3CC3)c2)cn1 [A, reference compound] | – | – | – | – | – | – | – | – | mortality at 0.2 ppm (Spodoptera littoralis [5]): 0%; mortality at 0.8 ppm (Spodoptera littoralis [5]): 15%; mortality at 3 ppm (Spodoptera littoralis [5]): 55%; mortality at 12.5 ppm (Spodoptera littoralis [5]): 85%
Cn1nc(OC(F)(F)C(F)OC(F)(F)F)c(C(F)(F)F)c1-n1cc(-c2ccc(Cl)c(C(=O)NC3(C#N)CC3)c2)cn1 (stereo not shown) [compound 15] | ≥ 80% | ≥ 80% | ≥ 80% | ≥ 80% | ≥ 80% | ≥ 80% | ≥ 80% | ≥ 80% | mortality at 0.781 ppm (Thrips tabaci [6]; 0.781 ppm): 0%; mortality at 3.12 ppm (Thrips tabaci [6]; 3.12 ppm): 90%; mortality at 12.5 ppm (Thrips tabaci [6]): 90%; mortality at 50 ppm (Thrips tabaci [6]; 50 ppm): 100%; mortality at 200 ppm (Thrips tabaci [6]; 200 ppm): 100%
Cn1nc(OCC(F)(F)C(F)(F)C(F)(F)F)c(C(F)(F)F)c1-n1cc(-c2ccc(Cl)c(C(=O)NC3(C#N)CC3)c2)cn1 [compound 19] | – | – | – | – | – | – | – | – | mortality at 200 ppm (Spodoptera littoralis [1]): ≥ 80%; mortality at 200 ppm (Plutella xylostella): ≥ 80%; mortality at 200 ppm (Diabrotica balteata): ≥ 80%; mortality at 200 ppm (Thrips tabaci [2]): ≥ 80%; mortality at 200 ppm (Tetranychus urticae): ≥ 80%; percent control (mortality or growth inhibition) at 200 ppm (Euschistus heros): ≥ 80%; mortality at 200 ppm (Myzus persicae [3]): ≥ 80%; mortality at 12 ppm (Myzus persicae [4]): ≥ 80%
Cn1nc(OCC(F)(F)F)c(C(F)(F)F)c1-n1cc(-c2ccc(Cl)c(C(=O)NC3(C#N)CC3)c2)cn1 [compound 3] | ≥ 80% | ≥ 80% | ≥ 80% | ≥ 80% | ≥ 80% | ≥ 80% | ≥ 80% | ≥ 80% | –
Cn1nc(OCC(F)(F)OC(F)(F)C(F)(F)OC(F)(F)F)c(C(F)(F)F)c1-n1cc(-c2ccc(Cl)c(C(=O)NC3(C#N)CC3)c2)cn1 [compound 18] | ≥ 80% | ≥ 80% | ≥ 80% | ≥ 80% | ≥ 80% | ≥ 80% | ≥ 80% | ≥ 80% | –
Cn1nc(OCC(F)(F)C(F)(F)F)c(C(F)(F)F)c1-n1cc(-c2ccc(Cl)c(C(=O)NC3CC3)c2)cn1 [compound 32] | ≥ 80% | ≥ 80% | ≥ 80% | ≥ 80% | ≥ 80% | ≥ 80% | ≥ 80% | ≥ 80% | –
Cn1nc(OC(F)C(F)(F)C(F)(F)F)c(C(F)(F)F)c1-n1cc(-c2ccc(Cl)c(C(=O)NC3(C#N)CC3)c2)cn1 (stereo not shown) [compound 4] | ≥ 80% | ≥ 80% | ≥ 80% | ≥ 80% | ≥ 80% | ≥ 80% | ≥ 80% | ≥ 80% | mortality at 0.05 ppm (Thrips tabaci [6]; 0.05 ppm): 65%; mortality at 0.2 ppm (Thrips tabaci [6]; 0.2 ppm): 90%; mortality at 0.8 ppm (Thrips tabaci [6]; 0.8 ppm): 100%; mortality at 3 ppm (Thrips tabaci [6]; 3 ppm): 100%; mortality at 12.5 ppm (Thrips tabaci [6]): 100%
Cn1nc(OC(F)(F)C(F)C(F)(F)F)c(C(F)(F)F)c1-n1cc(-c2ccc(F)c(C(=O)NC3CC3)c2)cn1 (stereo not shown) [compound 60] | ≥ 80% | ≥ 80% | ≥ 80% | ≥ 80% | ≥ 80% | ≥ 80% | ≥ 80% | ≥ 80% | –
Cn1nc(OCC(F)(F)C(F)F)c(C(F)(F)F)c1-n1cc(-c2ccc(Cl)c(C(=O)NC3(C#N)CC3)c2)cn1 [compound 30] | ≥ 80% | ≥ 80% | ≥ 80% | ≥ 80% | ≥ 80% | ≥ 80% | ≥ 80% | ≥ 80% | –
Cn1nc(OCC(F)(F)C(F)(F)C(F)(F)F)c(C(F)(F)F)c1-n1cc(-c2ccc(Cl)c(C(=O)NC3CC3)c2)cn1 [compound 26] | – | – | – | – | – | – | – | – | mortality at 200 ppm (Spodoptera littoralis [1]): ≥ 80%; mortality at 200 ppm (Plutella xylostella): ≥ 80%; mortality at 200 ppm (Diabrotica balteata): ≥ 80%; mortality at 200 ppm (Thrips tabaci [2]): ≥ 80%; mortality at 200 ppm (Tetranychus urticae): ≥ 80%; percent control (mortality or growth inhibition) at 200 ppm (Euschistus heros): ≥ 80%; mortality at 200 ppm (Myzus persicae [3]): ≥ 80%; mortality at 12 ppm (Myzus persicae [4]): ≥ 80%
Cn1nc(OCC(F)(F)F)c(C(F)(F)F)c1-n1cc(-c2ccc(Cl)c(C(=O)NC3CC3)c2)cn1 [compound 2] | ≥ 80% | ≥ 80% | ≥ 80% | ≥ 80% | ≥ 80% | ≥ 80% | ≥ 80% | ≥ 80% | –
